From US7456152B2, “Peptide inhibitors of thrombin as potent anticoagulants” (priority 2004, dated 2008)
Several values for one entry are separate records, joined by “and”; a condition that tells them apart may be missing. Identical values can stand only once. Like-named read-outs stand apart in the source and are kept apart here. Ends that are not written are not given here.

Columns and labels:
human α-thrombin [1] = target: T1, human α-thrombin (Homo sapiens, UniProt P00734); assay: Inhibition of the amidolytic activity of thrombin (Tos-Gly-Pro-Arg-p-nitroanilide hydrolysis); format: biochemical
T1 construct: Bovine and human α-thrombins were supplied by Haematologic Technologies Inc (VT, USA); cleaved off efficiently by thrombin to generate the free N-terminus of the A-chain of human thrombin; purchased Haematologic Technologies Inc (VT, USA)
Protocol: Kinetics of thrombin-catalyzed hydrolysis of the chromogenic substrate Tos-Gly-Pro-Arg-p-nitroanilide were followed by absorbance at 405 nm on a Spectramax plate reader thermostated at either 25° C. or 37° C. according to the method of Maragnore et al (supra). The concentrations of Tos-Gly-Pro-Arg-p-nitroanilide ranged from 2 to 400 μM. Initial rates were calculated under conditions of <15% hydrolysis of the total substrate. The KM and Vmax values were calculated accordingly and kcat values were determined by dividing Vmax by the enzyme (thrombin) concentration. The inhibition assays were performed in the clotting buffer with a certain fixed concentration of α-thrombin (˜0.3 nM) such that linear progress curves were achieved within at least 15 min in the absence of the inhibition. The total volume of the solution was fixed at 200 μl. Reactions were initiated by addition of the chromogenic substrate to the wells containing thrombin and a certain concentration of the peptide inhibitors premixed for less than 2 min. Alternatively, the substrate was first mixed with the peptide inhibitor and the total volume was adjusted to 120 μL using the clotting buffer. Eighty microliters of human α-thrombin in the clotting buffer (˜0.3 nM final concentration) was added to initiate the reaction. The concentration of the peptides ranged from 0.5 nM to 10 μM. Kinetics data from initial rate experiments were used to construct Lineweaver-Burke plot; i.e. the relationship of (substrate concentration)^−1 versus (initial velocity)^−1 which. were analysed by linear regression with MicroCal Origin 4.1 program (MicroCal, MD) or using the GraphPad Prism software. The Ki values of the inhibitors were determined using the equation: Ki=[I]/{(SL0/SL1)−1}, where
[I] is the inhibitor concentration,
SL0 is the slope of the reaction in the absence of inhibitors, and
SL1 is the slope of the reaction in the presence of the inhibitor.
Alternatively, Dixon plots of inverse velocity versus the inhibitor concentrations were generated with the Sigmaplot™ software. Every Dixon plot contained an array of data corresponding to different substrate concentrations and the Ki values were determined from the intersections. Following Peptide Cleavage by HPLC

human α-thrombin [2] = target: T1, human α-thrombin; assay: Digestion of 15N-labelled FD22 at the Arg(P1)-Pro(P1′) bond by human α-thrombin; format: biochemical; conditions: ~1 mM 15N-labelled peptide, 5 μM human α-thrombin
Protocol: After the peptide was incubated with thrombin at 25° C. for 40 hrs, around 90% of the intact FD22 peptide still remained as shown by use of HPLC analysis (FIG. 18B). In the clotting assay, the FD22 peptide at 100 nM was premixed with thrombin for different times before initiation of clotting. The peptide thus prepared had the clotting time reduced by only 12% after 30 hrs of incubation with thrombin. Indeed, the ^15N-labelled FD22 with a concentration of ˜1 mM (FIG. 16D) was digested completely at the Arg(P1)-Pro(P1′) bond by a 5 μM concentration of human α-thrombin only after more than 60 hrs of incubation.

human α-thrombin [3] = target: T1, human α-thrombin; assay: Peptide cleavage by thrombin followed by HPLC; format: biochemical
Protocol: Previously reported methods (DiMaio, J., Gibbs, B., Munn; D., Lefebvre, J., Ni, F., and Konishi, Y. (1990) J. Biol. Chem. 265, 21698-21703; and Witting, J. I., Bourdon, P., Brezniak, D. V., Maraganore, J. M., and Fenton, J. W. (1992) Biochem. J. 283 (Pt 3), 737-743) were employed with some modifications (as detailed in the Results section and FIG. 18) to determine whether some bivalent peptides are cleaved by thrombin. Each peptide was dissolved in the clotting buffer at a final concentration of 2.0 μM and incubated at 25° C. with or without 2 μM of human α-thrombin for up to 40 hrs. The samples were then boiled for 2 min to stop the reaction, and centrifuged. The supernatant was acidified by addition of concentrated acetic acid before being loaded on an analytical HPLC C18 column and eluted with a linear gradient of 0%-50% (v/v) acetonitrile.
(§1) The FN22 peptide was incubated with thrombin at 25° C. in order to investigate the stability of the peptide in complex with thrombin. The progress of peptide cleavage by thrombin was monitored and analyzed through the HPLC profiles of the FN22 peptide in the absence or presence of thrombin for different incubation times. […] In the clotting assay, the FN22 peptide at a concentration of 400 nM was premixed with thrombin for different times of incubation before initiating the clotting reaction. […]

human α-thrombin [4] = target: T1, human α-thrombin; assay: Clotting assay: fibrinogen clotting by human thrombin, concentration doubling the clotting time (DCT) = IC50; format: biochemical
Protocol: The clotting assays were carried out by use of the protocols described previously (DiMaio, J., Gibbs, B., Munn, D., Lefebvre, J., Ni, F., and Konishi, Y. (1990) J. Biol. Chem. 265, 21698-21703; and Witting, J. I., Bourdon, P., Brezniak, D. V., Maraganore, J. M., and Fenton, J. W. (1992) Biochem. J. 283 (Pt 3), 737-743) The assay employs bovine plasma fibrinogen dissolved at 0.1% in 50 mM Tris-Cl, 100 mM NaCl, 0.1% PEG-8000 at pH 7.6 (i.e. the clotting buffer). Each assay mixture contained a certain concentration of the peptide, and the reaction was started by the addition of human thrombin to a final concentration of 0.1 NIH unit/ml. Optical absorbance of the assay mixtures was measured at 420 nm and 37° C. using the Spectramax™ plate reader. The onset clotting time was determined as an intersection of the baseline and the initial slope of the O.D. change as a result of fibrin clot formation. The concentration of a peptide needed to double the clotting time (DCT) was defined as IC50. Peptide concentrations were determined by comparing the O.D.280 values of peptide stock solutions in the clotting buffer (vide supra) with the predicted extinction coefficient for each peptide (Gill, S. C. and von Hippel, P. H. (1989) Anal. Biochem. 182, 319-326).
The peptide concentration for doubling the clotting time (DCT) was defined as the IC50 value.

human α-thrombin [5] = target: T1, human α-thrombin; assay: Stability of peptides pre-incubated with thrombin, read by the clotting assay; format: biochemical; conditions: 30 hrs of incubation, 25° C.
Protocol: as §1, with “reaction. The cleavage of the peptide by thrombin is indicated by a reduced clotting time with increasing incubation times.” for “reaction.”
In FIG. 18C, curve (1) represents the clotting assay curve recorded for a freshly-prepared stock solution of thrombin in the absence of peptide inhibitors, curves (2) and (3) represent the clotting curves recorded under the same condition as in (1) except that thrombin stood at 4° C. and 25° C., respectively, for 30 hrs, curves (4) and (5) represent the clotting curves recorded under the same condition as that in (3) except that the FN22 peptide (400 nM, curve 4) and FD22 (100 nM, curve 5) were mixed with thrombin during incubation, and curves (6) and (7) represent the clotting curves recorded under the same condition as that in (3) except that FN22 (400 nM, curve 6) and FD22 (100 nM, curve 7) were freshly-prepared intact peptides. […]

human α-thrombin [6] = target: T1, human α-thrombin; conditions: data from the published reports of DiMaio and Maraganore; read-out: Amidolytic assay (Ki); cited from earlier work
human α-thrombin [7] = target: T1, human α-thrombin; conditions: data from the published reports of DiMaio and Maraganore; read-out: Clotting assay, 37° C. (IC50); cited from earlier work
[8] = Amidolytic assay, 25° C. (Ki, nM), Tos-Gly-Pro-Arg-pNA, 25° C.

For `CC[C@H](C)[C@H](NC(=O)[C@H](CCC(=O)O)NC(=O)[C@H](CCC(=O)O)NC(=O)[C@H](Cc1ccccc1)NC(=O)[C@H](CC(=O)O)NC(=O)CNC(=O)[C@H](CC(=O)O)NC(=O)[C@H](CC(N)=O)NC(=O)[C@H](Cc1c[nH]cn1)NC(=O)[C@H](CO)NC(=O)[C@H](CCC(N)=O)NC(=O)[C@@H]1CCCN1C(=O)[C@H](CCCNC(=N)N)NC(=O)[C@@H]1CCCN1C(=O)[C@H](CC(=O)O)NC(=O)[C@@H](N)Cc1ccccc1)C(=O)N1CCC[C@H]1C(=O)N[C@@H](CCC(=O)O)C(=O)N[C@@H](CCC(=O)O)C(=O)N[C@@H](Cc1ccc(O)cc1)C(=O)N[C@@H](CC(C)C)C(=O)N[C@@H](CCC(N)=O)C(=O)O` [FD22], the Ki (human α-thrombin [1]; [8]) was ~55 nM, the “incubation time until complete digestion at the Arg(P1)-Pro(P1′) bond” value (human α-thrombin [2]) was “more than 60 hrs” and the intact peptide remaining (human α-thrombin [3]; incubated with thrombin at 25° C. for 40 hrs) was “around 90%”. For the same molecule, the IC50 (human α-thrombin [4]) was ~50 nM and 45 nM and ~45 nM and the “reduction of clotting time” value (human α-thrombin [5]; peptide 100 nM premixed with thrombin) was 12%.

In the case of `CC[C@H](C)[C@H](NC(=O)[C@H](CCC(=O)O)NC(=O)[C@H](CCC(=O)O)NC(=O)[C@H](Cc1ccccc1)NC(=O)[C@H](CC(=O)O)NC(=O)CNC(=O)[C@H](CC(=O)O)NC(=O)[C@H](CC(N)=O)NC(=O)[C@H](Cc1c[nH]cn1)NC(=O)[C@H](CO)NC(=O)[C@H](CCC(N)=O)NC(=O)[C@@H]1CCCN1C(=O)[C@H](CCCNC(=N)N)NC(=O)[C@@H]1CCCN1C(=O)[C@H](CC(N)=O)NC(=O)[C@@H](N)Cc1ccccc1)C(=O)N1CCC[C@H]1C(=O)N[C@@H](CCC(=O)O)C(=O)N[C@@H](CCC(=O)O)C(=O)N[C@@H](Cc1ccc(O)cc1)C(=O)N[C@@H](CC(C)C)C(=O)N[C@@H](CCC(N)=O)C(=O)O` [FN22], the Ki (human α-thrombin [1]; [8]) is reported as 80 ± 10 nM, the “kcat in the presence of the peptide” value (human α-thrombin [1]; FN22 at 80 μM, 130 without peptide) is reported as 115 s⁻¹ and the mode of inhibition (human α-thrombin [1]; substrate concentrations near the KM) is reported as “competitive”. For the same molecule, the “peptide cleaved by thrombin” value (human α-thrombin [3]; 2.0 μM peptide, 2.0 μM human α-thrombin, 25° C., after 40 hours) was “about 30%” and the “reduction of clotting time compared to the control” value (human α-thrombin [5]; peptide 400 nM premixed with thrombin) was 41%.

For `CC[C@H](C)[C@H](NC(=O)[C@H](CCC(=O)O)NC(=O)[C@H](CCC(=O)O)NC(=O)[C@H](Cc1ccccc1)NC(=O)[C@H](CC(=O)O)NC(=O)CNC(=O)[C@H](CC(=O)O)NC(=O)[C@H](CC(N)=O)NC(=O)[C@H](Cc1c[nH]cn1)NC(=O)[C@H](CO)NC(=O)[C@H](CCC(N)=O)NC(=O)[C@@H]1CCCN1C(=O)[C@H](CCCNC(=N)N)NC(=O)[C@@H]1CCCN1C(=O)[C@H](CC(N)=O)NC(=O)[C@@H](N)Cc1ccccc1)C(=O)N1CCC[C@H]1C(=O)N[C@@H](CCC(=O)O)C(=O)N[C@@H](CCC(=O)O)C(=O)N[C@@H](Cc1ccc(O)cc1)C(=O)N[C@@H](CC(C)C)C(=O)N[C@@H](CCC(N)=O)C(=O)O` [FN22^(a)], the Ki (human α-thrombin [1]; [8]) was 100 ± 10 nM and the IC50 (human α-thrombin [4]) was 150 ± 15 nM.

For `CC[C@H](C)[C@H](NC(=O)[C@H](CCC(N)=O)NC(=O)[C@@H]1CCCN1C(=O)[C@H](CCCNC(=N)N)NC(=O)[C@@H]1CCCN1C(=O)[C@H](CCC(N)=O)NC(=O)[C@@H](NC(=O)[C@H](CO)NC(=O)CN)[C@@H](C)CC)C(=O)N[C@@H](Cc1c[nH]cn1)C(=O)N[C@@H](CC(N)=O)C(=O)N[C@@H](CC(=O)O)C(=O)NCC(=O)N[C@@H](CC(=O)O)C(=O)N[C@@H](Cc1ccccc1)C(=O)N[C@@H](CCC(=O)O)C(=O)N[C@@H](CCC(=O)O)C(=O)N[C@H](C(=O)N1CCC[C@H]1C(=O)N[C@@H](CCC(=O)O)C(=O)N[C@@H](CCC(=O)O)C(=O)N[C@@H](Cc1ccc(O)cc1)C(=O)N[C@@H](CC(C)C)C(=O)N[C@@H](CCC(N)=O)C(=O)O)[C@@H](C)CC` [GS-IQ22-I], the Ki (human α-thrombin [1]; [8]) was > 400 nM, the “amidolytic activity of thrombin in the presence of the peptide” value (human α-thrombin [1]; up to 400 nM in concentration) was “little affected” and the IC50 (human α-thrombin [4]) was 10 ± 1 nM.

For FDPRPGGGGCNGDFEEIPEEYL [FD21-4GN], the Ki (human α-thrombin [1]; read-out: Amidolytic assay, 25° C. (Ki), Tos-Gly-Pro-Arg-pNA, 25° C.) was 300 ± 20 nM and the IC50 (human α-thrombin [4]; peptide concentration doubling the clotting time (DCT), 37° C., '>' values: no delay in clotting time up to the concentration shown, read-out: Clotting assay, 37° C. (IC50)) was 208 ± 8 nM.

In the case of FNPRP [FN, FNPRP], the Ki (human α-thrombin [1]; [8]) is reported as > 2000 nM, the IC50 (human α-thrombin [4]) is reported as > 100000 nM and the “IC50 values (in words)” value (human α-thrombin [4]; clotting assay, FNPRP peptide alone) is reported as “submillimolar”.

With WDPRPQLHNDGDFEPIPEEYLQ [WD22-L-P] the Ki (human α-thrombin [1]; [8]) was 39 ± 4 nM and the IC50 (human α-thrombin [4]) was ~26 nM and 26 nM.

With WDPRPQRHNDGDFEPIPEEYLQ [WD22-R-P] the Ki (human α-thrombin [1]) was 171 ± 12 nM and the IC50 (human α-thrombin [4]) was ~6.7 nM and 6.7 nM.

WDPRPQRHNDGDYEPIPEEYLQ [WD22-R-YP] gave a Ki (human α-thrombin [1]) of 358 ± 23 nM and an IC50 (human α-thrombin [4]) of 4.5 ± 2 nM.

In the case of dFPRPQSHNDGDFEEIPEEYL [P53^(e)], the Ki (human α-thrombin [6]) is listed as 2.8 ± 0.9 nM and the IC50 (human α-thrombin [7]) is listed as 4.1 ± 0.8 nM.
